# Experimental data taken from publication PMC11909324 (Journal of the Science of Food and Agriculture, 2024).
# Values joined by “and” are separate entries in the source; they are usually repeats but may differ in a detail not shown here. Identical values can stand only once. Like-named read-outs stand apart in the source and are kept apart here.
# Legend:
# [1] = target: T1, xanthine oxidase (XO) (Bos taurus, UniProt P80457); test: XO assay with xanthine as substrate (uric acid formation, HPLC-UV); assay type: biochemical, bovine; conditions: for decrease in uric acid production (inhibition of XO-catalyzed xanthine oxidation) / inhibition at 20 µM: inhibitor 20 μmol L^−1; for decrease in uric acid production (inhibition of XO-catalyzed xanthine oxidation) / IC50 / XO-catalyzed uric acid formation / inhibition at 20 µM: xanthine 5 μmol L^−1; for IC50: XO 0.0003 U mL^−1, 8 min, 37 °C, pH 7.5, read-out: IC50, xanthine oxidation; for XO-catalyzed uric acid formation: inhibitor 5 μmol L^−1; for inhibition at 20 µM: read-out: decrease in uric acid production (inhibition of XO-catalyzed xanthine oxidation); for α = IC50 of flavonoid/IC50 of positive control, xanthine oxidation: relative to APU;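 for all read-outs here: incubations in 0.05 mol L^−1 sodium phosphate buffer, with uric acid and remaining xanthine both quantified by HPLC-UV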
# T1 construct: XO (from bovine milk); purchased Merck (Darmstadt, Germany); host or cells: bovine milk (natural source)
# [2] = target: T1, xanthine oxidase (XO); test: XO assay with 6MP as substrate (6-thiouric acid formation, HPLC-UV); assay type: biochemical, bovine; conditions: for lower decrease in metabolite formation in the 6MP assay than in the xanthine assay: difference between assays; for IC50: XO 0.01 U mL^−1, 25 min, 37 °C, pH 7.5, read-out: IC50, 6MP oxidation; for fold stronger inhibition than APU, 6MP assay: based on IC50 values; for XO-catalyzed 6-thiouric acid formation: inhibitor 5 μmol L^−1; for IC50(6MP)/IC50(xanthine): ratio of IC50 values with the two substrates; for α = IC50 of flavonoid/IC50 of positive control, 6MP oxidation: relative to APU;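 for all read-outs here: incubation in 0.05 mol L^−1 sodium phosphate buffer, with 6MP and 6-thiouric acid quantified by HPLC-UV and conversion taken as the product share of substrate plus product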
# [3] = target: T1, xanthine oxidase (XO); test: Fluorescence quenching studies of polyphenol-XO complexes; assay type: binding, bovine; conditions: for Log K SV ± SEM (Stern–Volmer quenching constant): K SV in L mol^−1
# Protocol: Increasing concentrations of polyphenols (0, 2, 4, 6, 8 and 10 μmol L^−1) were added to a standard amount of XO (0.4 μmol L^−1) in sodium phosphate buffer (0.05 mol L^−1, pH 7.5). Then, the emission spectra of XO were recorded using 280 nm excitation wavelength. The inner‐filter effects of silymarin components/metabolites were corrected based on the following equation[39], [41], [42]: (1) Icor=Iobs×e^Aex+Aem/2 where I cor is the corrected and I obs is the observed emission intensity; while A ex and A em are the absorbance of polyphenols at the excitation and emission wavelengths applied, respectively. Polyphenol‐induced fluorescence quenching was evaluated at 335 nm. Stern–Volmer quenching constants (K SV; unit: L mol^−1) of polyphenol–XO complexes were determined using the graphical application of the Stern–Volmer equation[43], [44], [45]: (2) I0/I=1+KSV×Q where I 0 and I are the emission signals of XO without and with the polyphenols tested, respectively, and [Q] denotes the molar concentration (mol L^−1) of the quencher (polyphenols). The binding constants (K; unit: L mol^−1) of polyphenol–XO complexes were calculated applying the modified Stern–Volmer equation[43], [44], [45]: (3) I0/I0−I=1/fa×K×1/Q+1/fa where I 0, I and [Q] have the same meaning as in Eqn (2), and f a is the fraction of the accessible fluorophore.
# [4] = target: T1, xanthine oxidase (XO); test: Reversibility of XO inhibition (preincubation, increasing xanthine concentrations); assay type: biochemical, bovine; conditions: SBS 5 μmol L^−1, DSC and DSCS 0.5 μmol L^−1; 10 min preincubation; xanthine 5, 25, 50 μmol L^−1
# Protocol: After 8 min incubation (700 rpm, 37 °C), the reaction was stopped, and the samples were treated in the same way as described in the previous paragraph.
# [5] = in vivo; cited from earlier work
# [6] = inhibitor 20 μmol L^−1, 6MP 5 μmol L^−1
# [7] = λex 280 nm, λem 335 nm, XO 0.4 μmol L^−1, pH 7.5
# [8] = association constant K in L mol^−1, λex 280 nm, λem 335 nm, XO 0.4 μmol L^−1, pH 7.5
# [9] = association constant K in L mol^−1, λex 280 nm, λem 335 nm, XO 0.4 μmol L^−1, pH 7.5, read-out: Log K ± SEM (binding constant, modified Stern–Volmer) (converted)
# T1 sequence (P80457 whole entry): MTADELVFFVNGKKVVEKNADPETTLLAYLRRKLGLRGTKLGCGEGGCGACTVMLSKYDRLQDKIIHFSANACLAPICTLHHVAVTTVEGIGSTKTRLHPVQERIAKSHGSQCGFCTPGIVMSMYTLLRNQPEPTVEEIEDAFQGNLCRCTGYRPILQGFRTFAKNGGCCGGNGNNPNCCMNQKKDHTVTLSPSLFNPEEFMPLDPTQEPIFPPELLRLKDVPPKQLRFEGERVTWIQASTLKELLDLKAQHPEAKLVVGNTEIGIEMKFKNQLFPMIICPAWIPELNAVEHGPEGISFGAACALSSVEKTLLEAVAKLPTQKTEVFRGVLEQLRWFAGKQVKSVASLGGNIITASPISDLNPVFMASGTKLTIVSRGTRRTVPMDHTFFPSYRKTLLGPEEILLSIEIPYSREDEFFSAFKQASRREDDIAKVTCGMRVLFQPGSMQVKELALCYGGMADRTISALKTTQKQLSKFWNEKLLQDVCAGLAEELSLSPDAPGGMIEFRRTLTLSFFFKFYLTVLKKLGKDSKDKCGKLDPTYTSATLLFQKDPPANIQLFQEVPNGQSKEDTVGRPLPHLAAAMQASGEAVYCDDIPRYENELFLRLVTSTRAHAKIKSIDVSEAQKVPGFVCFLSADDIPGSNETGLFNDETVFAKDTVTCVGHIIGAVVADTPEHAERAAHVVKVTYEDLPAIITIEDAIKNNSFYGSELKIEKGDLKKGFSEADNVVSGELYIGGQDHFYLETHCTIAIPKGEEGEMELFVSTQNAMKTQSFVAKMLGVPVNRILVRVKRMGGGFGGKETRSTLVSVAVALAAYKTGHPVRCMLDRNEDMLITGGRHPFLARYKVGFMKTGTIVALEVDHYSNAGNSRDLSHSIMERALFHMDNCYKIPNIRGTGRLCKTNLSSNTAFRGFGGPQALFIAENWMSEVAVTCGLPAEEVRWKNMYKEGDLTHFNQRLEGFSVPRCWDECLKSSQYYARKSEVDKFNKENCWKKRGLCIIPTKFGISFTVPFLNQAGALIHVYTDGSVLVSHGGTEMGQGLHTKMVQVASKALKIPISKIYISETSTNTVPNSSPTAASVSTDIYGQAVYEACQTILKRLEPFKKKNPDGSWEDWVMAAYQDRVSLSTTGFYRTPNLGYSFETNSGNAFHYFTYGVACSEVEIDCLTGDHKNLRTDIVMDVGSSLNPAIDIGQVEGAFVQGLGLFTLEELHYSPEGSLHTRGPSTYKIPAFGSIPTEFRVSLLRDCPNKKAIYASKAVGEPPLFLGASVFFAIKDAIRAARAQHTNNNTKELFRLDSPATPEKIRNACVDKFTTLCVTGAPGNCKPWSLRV
Molecule,decrease in uric acid production (inhibition of XO-catalyzed xanthine oxidation) [1],"decrease in 6-thiouric acid formation (inhibition of XO-catalyzed 6MP oxidation) [2, 6]","Log K SV ± SEM (Stern–Volmer quenching constant) [3, 7]","Log K ± SEM (binding constant, modified Stern–Volmer) [3, 8]",IC50 [1],"α = IC50 of flavonoid/IC50 of positive control, xanthine oxidation [1]",IC50 ([2]; 6MP 5 μmol L^−1) [µM],"α = IC50 of flavonoid/IC50 of positive control, 6MP oxidation [2]",other results
"COc1cc(C2Oc3c(O)cc(C4Oc5cc(O)cc(O)c5C(=O)C4O)cc3C2CO)ccc1OS(=O)(=O)O (mixture of isomers) [SCS, silychristin‐19‐O‐sulfate]",weaker effect compared to its parent compound,weak to moderate inhibitors,4.37 ± 0.03,4.66 ± 0.02,,,,,lower decrease in metabolite formation in the 6MP assay than in the xanthine assay ([2]; inhibitor 20 μmol L^−1): ~20%
isosilybin A‐20‐O‐sulfate [ISAS],more than 80%,,4.49 ± 0.01,4.90 ± 0.04,0.68 µM,2.62,2.86,0.68,IC50(6MP)/IC50(xanthine) [2]: 4.2
"O=C(O)[C@H]1O[C@@H](Oc2cc(O)cc(/C=C/c3ccc(O)cc3)c2)[C@H](O)[C@@H](O)[C@@H]1O [R3G, resveratrol‐3‐glucuronide]",10%,not significant,,,,,,,peak plasma concentrations [5]: 10 to 20 µmol/L
"O=C(O[C@@H]1Cc2c(O)cc(O)cc2O[C@@H]1c1cc(O)c(O)c(O)c1)c1cc(O)c(O)c(O)c1 [EGCG, epigallocatechin gallate]",approximately 50%,weak to moderate inhibitors,,,,,,,
"COc1cc([C@@H]2Oc3c(O)cc([C@H]4Oc5cc(O)cc(O)c5C(=O)[C@@H]4O)cc3[C@H]2CO)ccc1O [SC, silychristin]",,,4.43 ± 0.01,4.81 ± 0.01,4.5 µM,17.3,10,2.38,IC50(6MP)/IC50(xanthine) [2]: 2.2
"Oc1cc(O)c2c(c1)O[C@H](c1cc(O)c(O)c(O)c1)[C@H](O)C2 [EGC, epigallocatechin]",did not cause significant changes,only slight inhibitory action,,,,,,,
"COc1cc([C@H]2Oc3cc([C@H]4Oc5cc(O)cc(O)c5C(=O)[C@@H]4O)ccc3O[C@@H]2CO)ccc1OS(=O)(=O)O [SAS, silybin A‐20‐O‐sulfate]",more than 80%,,4.58 ± 0.03,4.99 ± 0.05,1.4 µM and 1.43 µM,5.50,2.91,0.69,IC50(6MP)/IC50(xanthine) [2]: 2.0
"Oc1ncnc2[nH]ncc12 [APU, allopurinol, reference compound]",almost completely abolished metabolite formation,marked decreases,,,,,,,
"COc1cc(C2Oc3c(O)cc(-c4oc5cc(O)cc(O)c5c(=O)c4O)cc3C2CO)ccc1OS(=O)(=O)O (mixture of isomers) [DSCS, 2,3‐dehydrosilychristin‐19‐O‐sulfate]",,,4.68 ± 0.01,5.12 ± 0.03,0.08 µM,0.31,0.21,0.05,"XO-catalyzed uric acid formation [1]: almost completely abolished; fold stronger inhibition than APU, 6MP assay [2]: approximately 20 fold; XO-catalyzed 6-thiouric acid formation ([2]; 6MP 5 μmol L^−1): almost completely abolished; reversibility of the inhibitory action on XO [4]: reversible; K (binding constant) of polyphenol–XO complex ([3]; fluorescence quenching): above 10^5 L mol^−1"
"COc1cc([C@@H]2Oc3cc([C@H]4Oc5cc(O)cc(O)c5C(=O)[C@@H]4O)ccc3O[C@H]2CO)ccc1OS(=O)(=O)O [SBS, silybin B‐20‐O‐sulfate]",more than 80%,,4.63 ± 0.01,5.05 ± 0.02,0.24 µM,0.92,0.57,0.14,"XO-catalyzed uric acid formation [1]: almost completely abolished; fold stronger inhibition than APU, 6MP assay [2]: ~7 fold; XO-catalyzed 6-thiouric acid formation ([2]; 6MP 5 μmol L^−1): almost completely abolished; IC50(6MP)/IC50(xanthine) [2]: 2.4; reversibility of the inhibitory action on XO [4]: reversible; K (binding constant) of polyphenol–XO complex ([3]; fluorescence quenching): above 10^5 L mol^−1"

# Second part, led by results:
decrease in uric acid production (inhibition of XO-catalyzed xanthine oxidation) [1],"decrease in 6-thiouric acid formation (inhibition of XO-catalyzed 6MP oxidation) [2, 6]","Log K SV ± SEM (Stern–Volmer quenching constant) [3, 7]","Log K ± SEM (binding constant, modified Stern–Volmer) [3, 8]",IC50 [1],"α = IC50 of flavonoid/IC50 of positive control, xanthine oxidation [1]",IC50 ([2]; 6MP 5 μmol L^−1) [µM],"α = IC50 of flavonoid/IC50 of positive control, 6MP oxidation [2]",Molecule,other results
did not cause significant changes,,,,,,,,"Oc1cc(O)c2c(c1)O[C@H](c1ccc(O)c(O)c1)[C@H](O)C2 [ECT, epicatechin]",
,marked decreases,4.68 ± 0.01,,0.09 µM,0.35,0.29,0.07,"COc1cc([C@@H]2Oc3c(O)cc(-c4oc5cc(O)cc(O)c5c(=O)c4O)cc3[C@H]2CO)ccc1O [DSC, 3,5,7‐trihydroxy‐2‐[(2R,3S)‐7‐hydroxy‐2‐(4‐hydroxy‐3‐methoxyphenyl)‐3‐(hydroxymethyl)‐2,3‐dihydro‐1‐benzofuran‐5‐yl]chromen‐4‐one]","fold stronger inhibitor of xanthine oxidation compared to SC ([1]; based on IC50 values): 50 fold; XO-catalyzed uric acid formation [1]: almost completely abolished; inhibition at 20 µM [1]: 96%; fold stronger inhibition than APU, 6MP assay [2]: ~15 fold; XO-catalyzed 6-thiouric acid formation ([2]; 6MP 5 μmol L^−1): almost completely abolished; inhibition at 20 µM ([2]; inhibitor 20 μmol L^−1, 6MP 5 μmol L^−1, read-out: decrease in 6-thiouric acid formation (inhibition of XO-catalyzed 6MP oxidation)): > 80%; IC50(6MP)/IC50(xanthine) [2]: 3.2; reversibility of the inhibitory action on XO [4]: reversible; Kd [3, 9]: 7.76 µM; Kd ([3]; fluorescence quenching, read-out: K (binding constant) of polyphenol–XO complex): < 10 µM"
only weak inhibitors,weak to moderate inhibitors,4.45 ± 0.04,,,,,,"COc1cc([C@H]2Oc3cc([C@H]4Oc5cc(O)cc(O)c5C(=O)[C@@H]4O)ccc3O[C@@H]2CO)ccc1O [SA, silybin A]","Kd [3, 9]: 19.5 µM"
,weak to moderate inhibitors,4.46 ± 0.01,,,,,,"COc1cc([C@H]2Oc3ccc([C@H]4Oc5cc(O)cc(O)c5C(=O)[C@@H]4O)cc3O[C@@H]2CO)ccc1O [ISA, isosilybin A]","inhibition at 20 µM [1]: 64%; lower decrease in metabolite formation in the 6MP assay than in the xanthine assay ([2]; inhibitor 20 μmol L^−1): ~20%; Kd [3, 9]: 18.2 µM"
,weak to moderate inhibitors,,,,,,,"O=C(O[C@@H]1Cc2c(O)cc(O)cc2O[C@@H]1c1ccc(O)c(O)c1)c1cc(O)c(O)c(O)c1 [ECG, epicatechin gallate]",inhibition at 20 µM [1]: ~50%
only weak inhibitors,weak to moderate inhibitors,4.49 ± 0.01,,,,,,"COc1cc([C@@H]2Oc3cc([C@H]4Oc5cc(O)cc(O)c5C(=O)[C@@H]4O)ccc3O[C@H]2CO)ccc1O [SB, (2R,3R)‐3,5,7‐trihydroxy‐2‐[(2S,3S)‐3‐(4‐hydroxy‐3‐methoxyphenyl)‐2‐(hydroxymethyl)‐2,3‐dihydro‐1,4‐benzodioxin‐6‐yl]‐2,3‐dihydrochromen‐4‐one]","Kd [3, 9]: 13.5 µM"
did not cause significant changes,,,,,,,,"Oc1cc(O)c2c(c1)OC(c1ccc(O)c(O)c1)C(O)C2 (stereo not shown) [CAT, catechin]",
